From patent US6914045B2, “Glycopeptide antibiotics” (Wyeth Holdings Corporation, priority 2001, dated 2005)
Values after ≈ are worked out from the molar mass of the structure shown.

Columns and labels:
Assay in all cases: in vitro antibacterial evaluation, MIC by broth dilution
Format in all cases: cell-based
Enterococcus sp. = details: broth dilution, 18 hours at 35° C.
Method in brief: (§1)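 Broth dilution per NCCLS standard M7-A2 in Muller-Hinton II […], with an inoculum of 5×10^5 CFU/mL and antibiotic spanning 64-0.06 μg/mL. The MIC is the lowest concentration that inhibits growth of the organism.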

Staphylococcus sp. = details: broth dilution, 18 hours at 35° C.; for MIC Staphylococcus aureus (GC 1131): strain GC 1131
Method in brief: as §1

Streptococcus sp. = details: broth dilution, 18 hours at 35° C.
Method in brief: as §1

Escherichia coli = details: 18 hours at 35° C.

MIC Enterococcus avium (GC 4558) (Enterococcus sp.): 2 µg/mL (≈ 1.45 µM)
MIC Enterococcus faecalis (ATCC 29212) (Enterococcus sp.): 4 µg/mL (≈ 2.91 µM)
MIC Enterococcus faecalis (GC 2242) (Enterococcus sp.): 2 µg/mL (≈ 1.45 µM)
MIC Enterococcus faecalis (GC 2691) (Enterococcus sp.): 4 µg/mL (≈ 2.91 µM)
MIC Enterococcus faecalis (GC 3059) (Enterococcus sp.): 4 µg/mL (≈ 2.91 µM)
MIC Enterococcus faecalis (GC 4552) (Enterococcus sp.): 4 µg/mL (≈ 2.91 µM)
MIC Enterococcus faecalis (GC 4553) (Enterococcus sp.): 4 µg/mL (≈ 2.91 µM)
MIC Enterococcus faecalis (GC 4554) (Enterococcus sp.): 4 µg/mL (≈ 2.91 µM)
MIC Enterococcus faecalis (GC 6189) (Enterococcus sp.): 2 µg/mL (≈ 1.45 µM)
MIC Enterococcus faecium (GC 2243) (Enterococcus sp.): 4 µg/mL (≈ 2.91 µM)
MIC Enterococcus faecium (GC 4556) (Enterococcus sp.): 4 µg/mL (≈ 2.91 µM)
MIC Enterococcus faecium (GC 4557) (Enterococcus sp.): 2 µg/mL (≈ 1.45 µM)
MIC Enterococcus faecalis (ATCC 29212) (Enterococcus sp.; inoculum 5×10^5 CFU/mL, strain ATCC 29212): 4 µg/mL (≈ 2.91 µM)
MIC Enterococcus faecalis (GC 2242) (Enterococcus sp.; inoculum 5×10^5 CFU/mL, strain GC 2242): 2 µg/mL (≈ 1.45 µM)
MIC Enterococcus faecium (GC 2243) (Enterococcus sp.; inoculum 5×10^5 CFU/mL, strain GC 2243): 4 µg/mL (≈ 2.91 µM)
MIC Enterococcus faecalis (GC 2691) (Enterococcus sp.; inoculum 5×10^5 CFU/mL, strain GC 2691): 4 µg/mL (≈ 2.91 µM)
MIC Enterococcus faecalis (GC 3059) (Enterococcus sp.; inoculum 5×10^5 CFU/mL, strain GC 3059): 4 µg/mL (≈ 2.91 µM)
MIC Enterococcus faecalis (GC 4552) (Enterococcus sp.; inoculum 5×10^5 CFU/mL, strain GC 4552): 4 µg/mL (≈ 2.91 µM)
MIC Enterococcus faecalis (GC 4553) (Enterococcus sp.; inoculum 5×10^5 CFU/mL, strain GC 4553): 4 µg/mL (≈ 2.91 µM)
MIC Enterococcus faecalis (GC 4554) (Enterococcus sp.; inoculum 5×10^5 CFU/mL, strain GC 4554): 4 µg/mL (≈ 2.91 µM)
MIC Enterococcus faecium (GC 4556) (Enterococcus sp.; inoculum 5×10^5 CFU/mL, strain GC 4556): 4 µg/mL (≈ 2.91 µM)
MIC Enterococcus faecium (GC 4557) (Enterococcus sp.; inoculum 5×10^5 CFU/mL, strain GC 4557): 2 µg/mL (≈ 1.45 µM)
MIC Enterococcus avium (GC 4558) (Enterococcus sp.; inoculum 5×10^5 CFU/mL, strain GC 4558): 2 µg/mL (≈ 1.45 µM)
MIC Enterococcus faecalis (GC 6189) (Enterococcus sp.; inoculum 5×10^5 CFU/mL, strain GC 6189): 2 µg/mL (≈ 1.45 µM)
MIC Staphylococcus aureus (GC 1131) (Staphylococcus sp.; inoculum 5×10^5 CFU/mL): 2 µg/mL (≈ 1.45 µM)
MIC Staphylococcus aureus (ATCC 29213) (Staphylococcus sp.; strain ATCC 29213): 2 µg/mL (≈ 1.45 µM)
MIC Staphylococcus aureus (GC 1131) (Staphylococcus sp.): 2 µg/mL (≈ 1.45 µM)
MIC Staphylococcus aureus (GC 3051) (Staphylococcus sp.; strain GC 3051): 1 µg/mL (≈ 0.727 µM)
MIC Staphylococcus aureus (GC 3053) (Staphylococcus sp.; strain GC 3053): 2 µg/mL (≈ 1.45 µM)
MIC Staphylococcus aureus (GC 4541) (Staphylococcus sp.; strain GC 4541): 2 µg/mL (≈ 1.45 µM)
MIC Staphylococcus aureus (GC 4542) (Staphylococcus sp.; strain GC 4542): 1 µg/mL (≈ 0.727 µM)
MIC Staphylococcus aureus-SMITH (GC 4543) (Staphylococcus sp.; strain GC 4543): 1 µg/mL (≈ 0.727 µM)
MIC Staphylococcus aureus (GC 4544) (Staphylococcus sp.; strain GC 4544): 2 µg/mL (≈ 1.45 µM)
MIC Staphylococcus aureus (GC 4545) (Staphylococcus sp.; strain GC 4545): 1 µg/mL (≈ 0.727 µM)
MIC Coagulase Negative Staphylococcus (GC 4547) (Staphylococcus sp.; strain GC 4547): 2 µg/mL (≈ 1.45 µM)
MIC Coagulase Negative Staphylococcus (GC 4548) (Staphylococcus sp.; strain GC 4548): 0.5 µg/mL (≈ 0.364 µM)
MIC Coagulase Negative Staphylococcus (GC 4549) (Staphylococcus sp.; strain GC 4549): 0.5 µg/mL (≈ 0.364 µM)
MIC Coagulase Negative Staphylococcus (GC 4551) (Staphylococcus sp.; strain GC 4551): 1 µg/mL (≈ 0.727 µM)
MIC Streptococcus agalactiae (GC 4564) (Streptococcus sp.): <0.12 µg/mL
MIC Streptococcus pneumoniae (ATCC 6301) (Streptococcus sp.): <0.12 µg/mL
MIC Streptococcus pneumoniae (GC 1894) (Streptococcus sp.): <0.12 µg/mL
MIC Streptococcus pneumoniae (GC 4565) (Streptococcus sp.): <0.12 µg/mL
MIC Streptococcus pyogenes (GC 4563) (Streptococcus sp.): <0.12 µg/mL
MIC Streptococcus pneumoniae (ATCC 6301) (Streptococcus sp.; inoculum 5×10^5 CFU/mL, strain ATCC 6301): <0.12 µg/mL
MIC Streptococcus pneumoniae (GC 1894) (Streptococcus sp.; inoculum 5×10^5 CFU/mL, strain GC 1894): <0.12 µg/mL
MIC Streptococcus pyogenes (GC 4563) (Streptococcus sp.; inoculum 5×10^5 CFU/mL, strain GC 4563): <0.12 µg/mL
MIC Streptococcus agalactiae (GC 4564) (Streptococcus sp.; inoculum 5×10^5 CFU/mL, strain GC 4564): <0.12 µg/mL
MIC Streptococcus pneumoniae (GC 4565) (Streptococcus sp.; inoculum 5×10^5 CFU/mL, strain GC 4565): <0.12 µg/mL
MIC Escherichia coli (ATCC 25922) (Escherichia coli): 64 µg/mL (≈ 46.5 µM)
MIC Escherichia coli (GC 4559) (Escherichia coli): 32 µg/mL (≈ 23.3 µM)
MIC Escherichia coli (GC 4560) (Escherichia coli): 1 µg/mL (≈ 0.727 µM)
SMILES: N=C1NCC(C(O)C2NC(=O)C(Cc3ccc(OC4OC(CO)C(OC5OC6COC(c7ccccc7)OC6C(O)C5O)C(O)C4O)cc3)NC(=O)C(CC3CCCCC3)NC(=O)CNC(=O)C(CO)NC(=O)C(C(O)C3CNC(=N)N3C3OC(CO)C(O)C(O)C3O)NC2=O)N1 (stereo not shown) [Example 199]
MIC Staphylococcus haemolyticus (GC 4546) (Staphylococcus sp.; strain GC 4546): 1 µg/mL (≈ 0.727 µM)
